Source: publication PMC10227015, “From a drug repositioning to a structure-based drug design approach to tackle acute lymphoblastic leukemia” (Nature Communications, 2023)
Where two headings read alike, the source gives them in different places.

Tests used:
dCK-C3S-S74E = assay: Enzymatic assay (PK/LDH coupled), dC phosphorylation by dCK in the presence of UTP; format: biochemical, human; conditions: for ENZYMATIC ASSAY (Activation/Inhibition): presence of UTP; for effect on dCK enzymatic activity, activation versus inhibition: UTP 1 mM, dC 200 µM
Summary of the method: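 Activation versus inhibition was judged with 1 mM UTP, 200 µM dC and 2 μM dCK-C3S-S74E, using pyruvate kinase/lactate dehydrogenase coupling that tracks NADH fluorescence decrease at 460 nm. Buffer was HEPES pH 7.5 with MgCl2, KCl and DTT. Rates came from linear slopes, expressed relative to compound-free control.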

CCRF-CEM cell line = assay: dCK cellular assay: CCRF-CEM proliferation in the presence of dT and dC; format: cell-based, human; conditions: for activity at 0.078 µM: 78 nM; for activity at 0.156 µM: 156 nM; for activity at 0.312 µM: 312 nM; for activity at 0.625 µM: 625 nM; for activity at 1.25 µM: 1250 nM; for activity at 2.5 µM: 2500 nM; for activity at 5 µM: 5000 nM; for activity at 20 µM: 20000 nM; for activity at 40 µM: 40000 nM; for activity at 0.0195 µM: 19.5 nM; for activity at 0.039 µM: 39 nM; for fold improvement of cellular IC50: versus the preceding compound of the optimization; for activity at 0.00975 µM: 9.75 nM
Summary of the method: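 Two conditions in T-ALL CCRF-CEM cells: compound only, and compound with thymidine blocking de novo synthesis and deoxycytidine rescuing via dCK. Metabolic dye fluorescence (560/590 nm) gives % proliferation vs DMSO; IC50s, mean ± SD of at least three triplicate runs.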

[1] = Homo sapiens, CCRF-CEM, dT 200 µM + dC 1 µM, read-out: Cell proliferation of the CCRF-CEM cell line Mean (% prolif)
[2] = Homo sapiens, CCRF-CEM, 10000 nM, dT 200 µM + dC 1 µM, read-out: Cell proliferation of the CCRF-CEM cell line Mean (% prolif)
[3] = Homo sapiens, CCRF-CEM, dT 200 µM + dC 1 µM, 72 h, read-out: IC50 cell proliferation (dCK cellular assay)
[4] = Homo sapiens, read-out: dCK CELLULAR ASSAY IC50 (nM), CCRF-CEM, 200 µM dT and 1 µM dC, read-out: dCK […] ASSAY IC50

Chain of dCK-C3S-S74E (P27707 whole entry S74E, form open): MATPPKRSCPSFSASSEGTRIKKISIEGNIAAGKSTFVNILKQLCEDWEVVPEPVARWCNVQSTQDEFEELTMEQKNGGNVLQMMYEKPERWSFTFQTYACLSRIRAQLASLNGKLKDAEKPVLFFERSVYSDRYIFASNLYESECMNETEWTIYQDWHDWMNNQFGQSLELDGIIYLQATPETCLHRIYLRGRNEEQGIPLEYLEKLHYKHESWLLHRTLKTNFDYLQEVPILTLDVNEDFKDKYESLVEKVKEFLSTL

Row | SMILES | ENZYMATIC ASSAY (Activation/Inhibition) (dCK-C3S-S74E) | activity at 0.078 µM (CCRF-CEM cell line; [1]) [%] | activity at 0.156 µM (CCRF-CEM cell line; [1]) [%] | activity at 0.312 µM (CCRF-CEM cell line; [1]) [%] | activity at 0.625 µM (CCRF-CEM cell line; [1]) [%] | activity at 1.25 µM (CCRF-CEM cell line; [1]) [%] | activity at 2.5 µM (CCRF-CEM cell line; [1]) [%] | activity at 5 µM (CCRF-CEM cell line; [1]) [%] | activity at 10 µM (CCRF-CEM cell line; [2]) [%] | activity at 20 µM (CCRF-CEM cell line; [1]) [%] | IC50 (CCRF-CEM cell line; [3]) [nM] | effect on dCK enzymatic activity, activation versus inhibition (dCK-C3S-S74E) | activity at 0.0195 µM (CCRF-CEM cell line; [1]) [%] | activity at 0.039 µM (CCRF-CEM cell line; [1]) [%] | also measured
1 | Cc1ccc(-c2ccc(CN3CCN(C)CC3)cc2)cc1Nc1nc(-c2nccc(N)n2)cs1 [OR0274] | A/I | 103 | 94.8 | 95.1 | 90.1 | 75 | 55.5 | 31 | 7.8 | -0.0667 | 2100 | – | – | – | activity at 40 µM (CCRF-CEM cell line; [1]): 0.167%
2 | Cc1ccc(-c2ccc(CCN3CCN(C)CC3)cc2)cc1Nc1nc(-c2nccc(N)n2)cs1 [OR0325] | A/I | 100 | 92.4 | 88.7 | 81.5 | 61.9 | 40.5 | 11.6 | 0.0667 | -0.0333 | 1680 | – | – | – | activity at 40 µM (CCRF-CEM cell line; [1]): 0.3%
3 | CCCN(c1nc(-c2nccc(N)n2)cs1)c1cc(-c2ccc(CCN3CCN(C)CC3)cc2)ccc1C [OR0345] | I | 82 | 72.4 | 63.4 | 51.4 | 37.6 | 19.3 | 2.4 | 0.333 | – | 505 | total loss of dCK enzymatic activation | 90.6 | 85.8 | fold improvement of cellular IC50 (CCRF-CEM cell line): 3 fold
4 | CCCN(c1nc(-c2nc(N)cc(N)n2)cs1)c1cc(-c2ccc(CCN3CCN(C)CC3)cc2)ccc1C [OR0600] | I | 85.9 | 76.2 | 59.2 | 40.4 | 22.2 | 5.5 | 0.133 | – | – | 341 | only exhibited enzymatic inhibition | 98.6 | 91.6 | activity at 0.00975 µM (CCRF-CEM cell line; [1]): 104%
5 | CCCN(c1nc(-c2nc(N)cc(N)n2)cs1)c1cc(-c2ccc(CCN3CCN(C)CC3)nc2)ccc1C [OR0602] | I | 58.6 | 47.4 | 36.8 | 27.7 | 20.9 | 12.7 | – | – | – | 130 | – | 81.5 | 67.1 | activity at 0.004875 µM (CCRF-CEM cell line; Homo sapiens, CCRF-CEM, 4.875 nM, dT 200 µM + dC 1 µM, read-out: Cell proliferation of the CCRF-CEM cell line Mean (% prolif)): 91.9%; activity at 0.00975 µM (CCRF-CEM cell line; [1]): 88%; fold improvement of cellular IC50 (CCRF-CEM cell line): ~ 2.4 fold
6 | CCCN(c1nc(-c2nc(N)cc(N)n2)cs1)c1cc(-c2ccc(S(=O)(=O)N3CCN(C)CC3)c(OC)c2)ccc1C [OR0635] | I | – | – | – | – | – | – | – | – | – | 15 | – | – | – | activity at 0.00017 µM (CCRF-CEM cell line; Homo sapiens, CCRF-CEM, 0.17 nM, dT 200 µM + dC 1 µM, read-out: Cell proliferation of the CCRF-CEM cell line Mean (% prolif)): 97%; activity at 0.0005 µM (CCRF-CEM cell line; Homo sapiens, CCRF-CEM, 0.5 nM, dT 200 µM + dC 1 µM, read-out: Cell proliferation of the CCRF-CEM cell line Mean (% prolif)): 85.1%; activity at 0.0015 µM (CCRF-CEM cell line; Homo sapiens, CCRF-CEM, 1.5 nM, dT 200 µM + dC 1 µM, read-out: Cell proliferation of the CCRF-CEM cell line Mean (% prolif)): 74.1%; activity at 0.0046 µM (CCRF-CEM cell line; Homo sapiens, CCRF-CEM, 4.6 nM, dT 200 µM + dC 1 µM, read-out: Cell proliferation of the CCRF-CEM cell line Mean (% prolif)): 62.3%; activity at 0.014 µM (CCRF-CEM cell line; Homo sapiens, CCRF-CEM, 14 nM, dT 200 µM + dC 1 µM, read-out: Cell proliferation of the CCRF-CEM cell line Mean (% prolif)): 48.1%; activity at 0.041 µM (CCRF-CEM cell line; Homo sapiens, CCRF-CEM, 41 nM, dT 200 µM + dC 1 µM, read-out: Cell proliferation of the CCRF-CEM cell line Mean (% prolif)): 35.9%; activity at 0.123 µM (CCRF-CEM cell line; Homo sapiens, CCRF-CEM, 123 nM, dT 200 µM + dC 1 µM, read-out: Cell proliferation of the CCRF-CEM cell line Mean (% prolif)): 24.4%; activity at 0.37 µM (CCRF-CEM cell line; Homo sapiens, CCRF-CEM, 370 nM, dT 200 µM + dC 1 µM, read-out: Cell proliferation of the CCRF-CEM cell line Mean (% prolif)): 17.8%; activity at 1.111 µM (CCRF-CEM cell line; Homo sapiens, CCRF-CEM, 1111 nM, dT 200 µM + dC 1 µM, read-out: Cell proliferation of the CCRF-CEM cell line Mean (% prolif)): 14.8%; activity at 3.333 µM (CCRF-CEM cell line; Homo sapiens, CCRF-CEM, 3333 nM, dT 200 µM + dC 1 µM, read-out: Cell proliferation of the CCRF-CEM cell line Mean (% prolif)): 10.3%; IC50 (CCRF-CEM cell line; [4]): 15.4 ± 10 nM; IC50 (CCRF-CEM cell line; Homo sapiens, Figure 2a, CCRF-CEM cell line, mean, read-out: IC50 (nM) (Cell Prolif)): 14 nM
7 | CCCN(c1nc(-c2nc(N)cc(N)n2)cs1)c1cc(-c2ccc(S(=O)(=O)N3CCN(C)CC3)cc2C(F)(F)F)ccc1C [OR0642] | I | – | – | – | – | – | – | – | – | – | 2.2 | inhibitor even at concentrations in the nanomolar range | – | – | activity at 10 pM (CCRF-CEM cell line; Homo sapiens, CCRF-CEM, 0.01 nM, dT 200 µM + dC 1 µM, read-out: Cell proliferation of the CCRF-CEM cell line Mean (% prolif)): 90.6%; activity at 30 pM (CCRF-CEM cell line; Homo sapiens, CCRF-CEM, 0.03 nM, dT 200 µM + dC 1 µM, read-out: Cell proliferation of the CCRF-CEM cell line Mean (% prolif)): 93.3%; activity at 91 pM (CCRF-CEM cell line; Homo sapiens, CCRF-CEM, 0.091 nM, dT 200 µM + dC 1 µM, read-out: Cell proliferation of the CCRF-CEM cell line Mean (% prolif)): 88.7%; activity at 0.00027 µM (CCRF-CEM cell line; Homo sapiens, CCRF-CEM, 0.27 nM, dT 200 µM + dC 1 µM, read-out: Cell proliferation of the CCRF-CEM cell line Mean (% prolif)): 87.2%; activity at 0.00082 µM (CCRF-CEM cell line; Homo sapiens, CCRF-CEM, 0.82 nM, dT 200 µM + dC 1 µM, read-out: Cell proliferation of the CCRF-CEM cell line Mean (% prolif)): 79.7%; activity at 0.0025 µM (CCRF-CEM cell line; Homo sapiens, CCRF-CEM, 2.5 nM, dT 200 µM + dC 1 µM, read-out: Cell proliferation of the CCRF-CEM cell line Mean (% prolif)): 68.2%; activity at 0.0074 µM (CCRF-CEM cell line; Homo sapiens, CCRF-CEM, 7.4 nM, dT 200 µM + dC 1 µM, read-out: Cell proliferation of the CCRF-CEM cell line Mean (% prolif)): 43.1%; activity at 0.022 µM (CCRF-CEM cell line; Homo sapiens, CCRF-CEM, 22 nM, dT 200 µM + dC 1 µM, read-out: Cell proliferation of the CCRF-CEM cell line Mean (% prolif)): 24.9%; activity at 0.067 µM (CCRF-CEM cell line; Homo sapiens, CCRF-CEM, 67 nM, dT 200 µM + dC 1 µM, read-out: Cell proliferation of the CCRF-CEM cell line Mean (% prolif)): 18%; activity at 0.2 µM (CCRF-CEM cell line; Homo sapiens, CCRF-CEM, 200 nM, dT 200 µM + dC 1 µM, read-out: Cell proliferation of the CCRF-CEM cell line Mean (% prolif)): 14.6%; increased potency in the cell proliferation assay (CCRF-CEM cell line; compared with dCKi1): more than 1000 times; potency increase (CCRF-CEM cell line; compared with masitinib): more than 1000 times
8 | Cc1ccc(NC(=O)c2ccc(CN3CCN(C)CC3)cc2)cc1Nc1nc(-c2nccc(N)n2)cs1 [dCKi1] | A/I | 88.7 | 91 | 94.4 | 93.2 | 98.2 | 91.8 | 67.7 | 31 | 8.1 | – | shifted from activators to inhibitors | – | 94.3 | Enzymatic activity (UTP) Mean (% activity) (dCK-C3S-S74E; 0.078 µM): 104.73%; Enzymatic activity (UTP) Mean (% activity) (dCK-C3S-S74E; 0.156 µM): 119.43%; Enzymatic activity (UTP) Mean (% activity) (dCK-C3S-S74E; 0.31 µM): 140.85%; Enzymatic activity (UTP) Mean (% activity) (dCK-C3S-S74E; 0.625 µM): 200.29%; Enzymatic activity (UTP) Mean (% activity) (dCK-C3S-S74E; 1.25 µM): 208.47%; Enzymatic activity (UTP) Mean (% activity) (dCK-C3S-S74E; 2.5 µM): 211.72%; Enzymatic activity (UTP) Mean (% activity) (dCK-C3S-S74E; 5 µM): 205.54%; Enzymatic activity (UTP) Mean (% activity) (dCK-C3S-S74E; 10 µM): 84.19%; Enzymatic activity (UTP) Mean (% activity) (dCK-C3S-S74E; 20 µM): 45.49%; Enzymatic activity (UTP) Mean (% activity) (dCK-C3S-S74E; 40 µM): 12.08%; Enzymatic activity (UTP) Mean (% activity) (dCK-C3S-S74E; 80 µM): 5.40%; Enzymatic activity (UTP) Mean (% activity) (dCK-C3S-S74E; 160 µM): 0.67%; activity at 10 µM (CCRF-CEM cell line; Homo sapiens, CCRF-CEM, compound 10 µM + dT 111 µM + dC 1 µM, 72 h, read-out: Cell proliferation of the CCRF-CEM cell line Mean (% prolif)): 47%; IC50 (CCRF-CEM cell line; [4]): 6950 ± 2530 nM; IC50 (CCRF-CEM cell line; Homo sapiens, CCRF-CEM, dT 200 µM + dC 1 µM, 72 h, read-out: IC50 cell proliferation): 6900 nM
